Experimental data from patent publication US4652638A, “3-O-acyl-4"-deoxydesmycosin derivatives” (Toyo Jozo Kabushiki Kaisha, priority 1983, dated 1987).
Converted amounts (≈) assume the structure as drawn. Read-outs that look alike come from different tables or passages of the source.

Tests used:
Assay in all cases: MIC (minimum inhibitory concentration)
Type in all cases: cell-based
[1] = test system: Pseudomonas aeruginosa IAM 1095; conditions: IAM1095; Pseudomonas aeruginosa IAM 1095; read-out: MIC
[2] = test system: Staphylococcus aureus 0119*
[3] = test system: Streptococcus pyogenes N.Y.5
[4] = test system: Staphylococcus aureus 0127*
[5] = test system: Staphylococcus aureus MS353
[6] = test system: Streptococcus faecalis 1501; conditions: Enterococcus faecalis; Streptococcus faecalis 1501; read-out: MIC
[7] = test system: Staphylococcus aureus MS353 A0*; conditions: * clinical isolate, macrolide-resistant bacteria A group
[8] = test system: Escherichia coli NIHJ-JC2; conditions: NIHJJC2; Escherichia coli NIHJ-JC2; read-out: MIC
[9] = test system: Streptococcus pyogenes 1022*
[10] = test system: Shigella sonnei E33
[11] = test system: Serratia marcescens; conditions: read-out: MIC
[12] = test system: Streptococcus agalaactiae 1020; conditions: Streptococcus agalaactiae 1020; read-out: MIC
[13] = test system: Salmonella enteritidis Gaertner; conditions: Salmonella enterica; Salmonella enteritidis Gaertner; read-out: MIC
[14] = test system: Micrococcus flavus ATCC 10240; conditions: ATCC10240; Micrococcus flavus ATCC 10240; read-out: MIC
[15] = test system: Sarcina lutea ATCC 9341; conditions: Micrococcus luteus, ATCC9341; Sarcina lutea ATCC 9341; read-out: MIC
[16] = test system: Staphylococcus aureus ATCC 6538P; conditions: ATCC6538P
[17] = test system: Klebsiella pneumoniae ATCC 10031; conditions: ATCC10031; Klebsiella pneumoniae ATCC 10031; read-out: MIC
[18] = test system: Shigella flexineri type 3a; conditions: TYPE3A
[19] = test system: Staphylococcus aureus MS353 C36; conditions: MS353C36
[20] = test system: Bacillus subtilis ATCC 6633; conditions: ATCC6633; Bacillus subtilis ATCC 6633; read-out: MIC
[21] = test system: Staphylococcus epidermidis sp-al-1; conditions: SPAL1; Staphylococcus epidermidis sp-al-1; read-out: MIC
[22] = test system: Proteus vulgaris OX19; conditions: read-out: MIC
[23] = test system: Escherichia coli B; conditions: Escherichia coli B; read-out: MIC
[24] = test system: Salmonella typhosa H901; conditions: Salmonella enterica, TYPHOSA
[25] = test system: Corynebacterium diphtheriae P.Y.8; conditions: read-out: MIC
[26] = Streptococcus pyogenes 1022, * clinical isolate, macrolide-resistant bacteria A group, read-out: MIC
[27] = Staphylococcus aureus 0119, * clinical isolate, macrolide-resistant bacteria A group, read-out: MIC

## CCC1OC(=O)CC(OC(C)=O)C(C)C(OC2OC(C)C(O)C(N(C)C)C2O)C(CC=O)CC(C)C(=O)C=CC(C)=CC1COC1OC(C)CC(OC)C1OC (stereo not drawn) [Example 1, 3-O-acetyl-4"-deoxydesmycosin]
[1]
  MIC: > 100 µg/mL
[2]; Staphylococcus aureus
  MIC: 100 µg/mL (≈ 125 µM)
[3]
  MIC: ≤ 0.05 µg/mL
[4]; Staphylococcus aureus
  MIC: > 100 µg/mL
[5]
  MIC: 0.2 µg/mL (≈ 0.251 µM)
[6]
  MIC: 0.8 µg/mL (≈ 1 µM)
[7]
  MIC: > 100 µg/mL
[8]
  MIC: > 100 µg/mL
[9]; [26]
  MIC: 50 µg/mL (≈ 62.7 µM)
[10]
  MIC: > 100 µg/mL
[11]
  MIC: > 100 µg/mL
[12]
  MIC: 0.1 µg/mL (≈ 0.125 µM)
[13]
  MIC: > 100 µg/mL
[14]
  MIC: ≤ 0.05 µg/mL
[15]
  MIC: ≤ 0.05 µg/mL
[16]
  MIC: 0.4 µg/mL (≈ 0.501 µM)
[17]
  MIC: 25 µg/mL (≈ 31.3 µM)
[18]
  MIC: 50 µg/mL (≈ 62.7 µM)
[19]
  MIC: 0.2 µg/mL (≈ 0.251 µM)
[20]
  MIC: 0.2 µg/mL (≈ 0.251 µM)
[21]
  MIC: 0.1 µg/mL (≈ 0.125 µM)
[22]
  MIC: 25 µg/mL (≈ 31.3 µM)
[23]
  MIC: > 100 µg/mL
[24]
  MIC: > 100 µg/mL

## CCC(=O)OC1CC(=O)OC(CC)C(COC2OC(C)CC(OC)C2OC)C=C(C)C=CC(=O)C(C)CC(CC=O)C(OC2OC(C)C(O)C(N(C)C)C2O)C1C (stereo not drawn) [Example 2, 3-O-propionyl-4"-deoxydesmycosin]
[1]
  MIC: 50 µg/mL (≈ 61.6 µM)
[2]; [27]
  MIC: 25 µg/mL (≈ 30.8 µM)
[3]
  MIC: ≤ 0.05 µg/mL
[4]; Staphylococcus aureus
  MIC: 12.5 µg/mL (≈ 15.4 µM)
[5]
  MIC: 0.2 µg/mL (≈ 0.246 µM)
[6]
  MIC: 0.4 µg/mL (≈ 0.493 µM)
[7]
  MIC: 12.5 µg/mL (≈ 15.4 µM)
[8]
  MIC: > 100 µg/mL
[9]; Streptococcus pyogenes
  MIC: 12.5 µg/mL (≈ 15.4 µM)
[10]
  MIC: > 100 µg/mL
[11]
  MIC: > 100 µg/mL
[12]
  MIC: 0.1 µg/mL (≈ 0.123 µM)
[13]
  MIC: > 100 µg/mL
[14]
  MIC: ≤ 0.05 µg/mL
[15]
  MIC: ≤ 0.05 µg/mL
[16]
  MIC: 0.4 µg/mL (≈ 0.493 µM)
[17]
  MIC: 25 µg/mL (≈ 30.8 µM)
[18]
  MIC: 50 µg/mL (≈ 61.6 µM)
[19]
  MIC: 0.2 µg/mL (≈ 0.246 µM)
[20]
  MIC: 0.1 µg/mL (≈ 0.123 µM)
[21]
  MIC: ≤ 0.05 µg/mL
[22]
  MIC: 50 µg/mL (≈ 61.6 µM)
[23]
  MIC: 100 µg/mL (≈ 123 µM)
[24]
  MIC: > 100 µg/mL

## CCCC(=O)OC1CC(=O)OC(CC)C(COC2OC(C)CC(OC)C2OC)C=C(C)C=CC(=O)C(C)CC(CC=O)C(OC2OC(C)C(O)C(N(C)C)C2O)C1C (stereo not drawn) [Example 3, 3-O-butyryl-4"-deoxydesmycosin]
[1]
  MIC: > 100 µg/mL
[2]; [27]
  MIC: 25 µg/mL (≈ 30.3 µM)
[3]
  MIC: ≤ 0.05 µg/mL
[4]; Staphylococcus aureus 0127, * clinical isolate, macrolide-resistant bacteria A group, read-out: MIC
  MIC: 25 µg/mL (≈ 30.3 µM)
[5]
  MIC: 0.4 µg/mL (≈ 0.484 µM)
[6]
  MIC: 0.2 µg/mL (≈ 0.242 µM)
[25]
  MIC: ≤ 0.05 µg/mL
[8]
  MIC: > 100 µg/mL
[9]; [26]
  MIC: 12.5 µg/mL (≈ 15.1 µM)
[10]
  MIC: > 100 µg/mL
[11]
  MIC: > 100 µg/mL
[12]
  MIC: 0.1 µg/mL (≈ 0.121 µM)
[13]
  MIC: > 100 µg/mL
[14]
  MIC: ≤ 0.05 µg/mL
[15]
  MIC: ≤ 0.05 µg/mL
[16]
  MIC: 0.4 µg/mL (≈ 0.484 µM)
[17]
  MIC: 25 µg/mL (≈ 30.3 µM)
[18]
  MIC: 50 µg/mL (≈ 60.5 µM)
[19]
  MIC: 0.2 µg/mL (≈ 0.242 µM)
[20]
  MIC: 0.1 µg/mL (≈ 0.121 µM)
[21]
  MIC: ≤ 0.05 µg/mL
[22]
  MIC: 50 µg/mL (≈ 60.5 µM)
[23]
  MIC: > 100 µg/mL
[24]
  MIC: > 100 µg/mL

## CCC1OC(=O)CC(OC(=O)c2ccccc2)C(C)C(OC2OC(C)C(O)C(N(C)C)C2O)C(CC=O)CC(C)C(=O)C=CC(C)=CC1COC1OC(C)CC(OC)C1OC (stereo not drawn) [Example 5, 3-O-benzoyl-4"-deoxydesmycosin]
[1]
  MIC: > 100 µg/mL
[2]; Staphylococcus aureus
  MIC: > 100 µg/mL
[3]
  MIC: ≤ 0.05 µg/mL
[4]; Staphylococcus aureus
  MIC: > 100 µg/mL
[5]
  MIC: 0.2 µg/mL (≈ 0.233 µM)
[6]
  MIC: 1.6 µg/mL (≈ 1.86 µM)
[7]
  MIC: 50 µg/mL (≈ 58.1 µM)
[8]
  MIC: > 100 µg/mL
[9]; [26]
  MIC: 25 µg/mL (≈ 29.1 µM)
[10]
  MIC: > 100 µg/mL
[11]
  MIC: > 100 µg/mL
[12]
  MIC: 0.2 µg/mL (≈ 0.233 µM)
[13]
  MIC: > 100 µg/mL
[14]
  MIC: ≤ 0.05 µg/mL
[15]
  MIC: ≤ 0.05 µg/mL
[16]
  MIC: 0.2 µg/mL (≈ 0.233 µM)
[17]
  MIC: 25 µg/mL (≈ 29.1 µM)
[18]
  MIC: 100 µg/mL (≈ 116 µM)
[19]
  MIC: 0.2 µg/mL (≈ 0.233 µM)
[20]
  MIC: 0.1 µg/mL (≈ 0.116 µM)
[21]
  MIC: 0.1 µg/mL (≈ 0.116 µM)
[22]
  MIC: 50 µg/mL (≈ 58.1 µM)
[23]
  MIC: > 100 µg/mL
[24]
  MIC: > 100 µg/mL
